Legend:
[1] = biological target: T1, Serine/threonine-protein kinase TAO3 (Homo sapiens) (UniProt Q9H2K8); assay: Selectivity interaction (KinomeScan (DiscoverX)) EUB0000229b TAOK3; conditions: at 10 µM
T1 sequence (whole entry): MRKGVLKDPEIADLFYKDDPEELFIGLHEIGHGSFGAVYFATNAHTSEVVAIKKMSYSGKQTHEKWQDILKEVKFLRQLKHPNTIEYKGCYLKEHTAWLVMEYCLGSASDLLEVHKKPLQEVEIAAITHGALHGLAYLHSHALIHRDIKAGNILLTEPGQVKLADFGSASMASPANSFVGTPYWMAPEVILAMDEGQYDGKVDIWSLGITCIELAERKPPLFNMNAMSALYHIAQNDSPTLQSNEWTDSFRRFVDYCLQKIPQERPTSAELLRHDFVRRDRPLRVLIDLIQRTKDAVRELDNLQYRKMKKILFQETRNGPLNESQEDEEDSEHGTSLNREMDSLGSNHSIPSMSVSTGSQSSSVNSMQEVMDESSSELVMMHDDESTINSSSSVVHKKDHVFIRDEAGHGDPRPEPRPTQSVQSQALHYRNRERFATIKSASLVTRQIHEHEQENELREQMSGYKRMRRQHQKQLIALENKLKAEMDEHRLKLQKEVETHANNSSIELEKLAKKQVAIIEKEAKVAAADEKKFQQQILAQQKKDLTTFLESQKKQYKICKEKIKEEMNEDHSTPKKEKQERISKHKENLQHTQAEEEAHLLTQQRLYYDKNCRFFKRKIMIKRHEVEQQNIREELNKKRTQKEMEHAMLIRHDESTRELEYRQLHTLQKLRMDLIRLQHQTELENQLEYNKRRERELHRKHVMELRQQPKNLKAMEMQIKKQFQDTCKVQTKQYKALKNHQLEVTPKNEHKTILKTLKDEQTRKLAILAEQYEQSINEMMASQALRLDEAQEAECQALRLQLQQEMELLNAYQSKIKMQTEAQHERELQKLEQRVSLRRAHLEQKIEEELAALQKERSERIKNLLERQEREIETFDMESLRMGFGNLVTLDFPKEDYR

[2] = biological target: T2, Non-receptor tyrosine-protein kinase TNK1 (Homo sapiens) (UniProt Q13470); assay: Selectivity interaction (KinomeScan (DiscoverX)) EUB0000229b TNK1; conditions: at 10 µM
T2 sequence (whole entry): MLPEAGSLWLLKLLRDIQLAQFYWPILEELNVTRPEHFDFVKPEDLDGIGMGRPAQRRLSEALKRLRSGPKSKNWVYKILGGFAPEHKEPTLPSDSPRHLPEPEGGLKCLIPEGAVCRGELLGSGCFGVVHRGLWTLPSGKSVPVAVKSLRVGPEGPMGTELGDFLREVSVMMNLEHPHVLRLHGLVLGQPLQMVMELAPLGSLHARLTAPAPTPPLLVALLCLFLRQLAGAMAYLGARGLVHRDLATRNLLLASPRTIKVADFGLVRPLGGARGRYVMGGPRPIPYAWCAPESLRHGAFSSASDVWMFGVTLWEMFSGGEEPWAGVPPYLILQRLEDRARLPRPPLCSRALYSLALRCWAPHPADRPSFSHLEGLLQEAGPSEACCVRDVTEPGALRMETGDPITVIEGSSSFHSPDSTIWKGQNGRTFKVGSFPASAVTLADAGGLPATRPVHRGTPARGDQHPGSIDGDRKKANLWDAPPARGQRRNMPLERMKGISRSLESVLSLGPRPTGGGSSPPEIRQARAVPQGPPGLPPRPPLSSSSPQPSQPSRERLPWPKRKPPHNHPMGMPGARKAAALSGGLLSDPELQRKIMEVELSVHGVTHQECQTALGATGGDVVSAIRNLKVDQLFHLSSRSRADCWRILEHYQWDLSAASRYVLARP

[3] = biological target: Mitogen-activated protein kinase kinase kinase 1 (Homo sapiens, UniProt Q13233); assay: Selectivity interaction (KinomeScan (DiscoverX)) EUB0000092b MAP3K1; conditions: at 10 µM
[4] = biological target: Insulin-like growth factor 1 receptor (Homo sapiens, UniProt P08069); assay: Selectivity interaction (KinomeScan (DiscoverX)) EUB0000092b IGF1R; conditions: at 10 µM
Chain of Insulin-like growth factor 1 receptor (P08069 31-736 limits assumed): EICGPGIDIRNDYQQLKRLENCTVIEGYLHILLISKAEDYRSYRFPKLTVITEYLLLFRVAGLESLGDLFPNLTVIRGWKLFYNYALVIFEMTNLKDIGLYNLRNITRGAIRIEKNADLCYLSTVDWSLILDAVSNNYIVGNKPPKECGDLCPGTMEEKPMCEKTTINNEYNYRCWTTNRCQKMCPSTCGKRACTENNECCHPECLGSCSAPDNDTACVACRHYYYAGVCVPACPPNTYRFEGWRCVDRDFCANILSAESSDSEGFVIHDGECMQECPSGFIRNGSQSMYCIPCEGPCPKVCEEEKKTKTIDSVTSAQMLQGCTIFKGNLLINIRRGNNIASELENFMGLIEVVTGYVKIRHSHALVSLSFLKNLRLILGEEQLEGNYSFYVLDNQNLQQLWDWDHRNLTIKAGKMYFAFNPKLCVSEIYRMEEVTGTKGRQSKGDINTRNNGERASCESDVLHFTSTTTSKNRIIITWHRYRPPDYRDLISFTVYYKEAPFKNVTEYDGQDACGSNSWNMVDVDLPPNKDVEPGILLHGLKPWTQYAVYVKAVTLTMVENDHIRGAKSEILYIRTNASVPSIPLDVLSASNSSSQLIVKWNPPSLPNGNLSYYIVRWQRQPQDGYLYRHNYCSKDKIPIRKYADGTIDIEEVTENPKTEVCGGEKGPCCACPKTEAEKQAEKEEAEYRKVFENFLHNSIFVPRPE
Chain of Insulin-like growth factor 1 receptor (P08069 741-1367 limits assumed): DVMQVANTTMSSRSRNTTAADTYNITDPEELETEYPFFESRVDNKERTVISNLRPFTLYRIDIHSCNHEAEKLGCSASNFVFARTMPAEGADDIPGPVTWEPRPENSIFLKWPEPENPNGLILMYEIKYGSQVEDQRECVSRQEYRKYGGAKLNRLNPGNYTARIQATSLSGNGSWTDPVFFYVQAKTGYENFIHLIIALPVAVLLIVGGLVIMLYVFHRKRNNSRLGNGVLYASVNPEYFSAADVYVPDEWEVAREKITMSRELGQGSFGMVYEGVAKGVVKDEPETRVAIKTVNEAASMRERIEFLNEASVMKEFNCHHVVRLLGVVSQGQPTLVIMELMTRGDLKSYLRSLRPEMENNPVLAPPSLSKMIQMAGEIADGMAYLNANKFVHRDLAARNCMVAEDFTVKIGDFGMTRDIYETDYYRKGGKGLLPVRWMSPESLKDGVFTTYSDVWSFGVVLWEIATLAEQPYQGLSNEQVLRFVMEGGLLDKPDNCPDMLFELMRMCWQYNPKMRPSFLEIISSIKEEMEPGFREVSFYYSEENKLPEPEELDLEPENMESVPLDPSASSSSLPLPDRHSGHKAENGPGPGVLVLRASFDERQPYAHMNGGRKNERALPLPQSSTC

[5] = biological target: T3, Rhodopsin kinase GRK1 (Homo sapiens) (UniProt Q15835); conditions: at 10 µM
T3 sequence (whole entry): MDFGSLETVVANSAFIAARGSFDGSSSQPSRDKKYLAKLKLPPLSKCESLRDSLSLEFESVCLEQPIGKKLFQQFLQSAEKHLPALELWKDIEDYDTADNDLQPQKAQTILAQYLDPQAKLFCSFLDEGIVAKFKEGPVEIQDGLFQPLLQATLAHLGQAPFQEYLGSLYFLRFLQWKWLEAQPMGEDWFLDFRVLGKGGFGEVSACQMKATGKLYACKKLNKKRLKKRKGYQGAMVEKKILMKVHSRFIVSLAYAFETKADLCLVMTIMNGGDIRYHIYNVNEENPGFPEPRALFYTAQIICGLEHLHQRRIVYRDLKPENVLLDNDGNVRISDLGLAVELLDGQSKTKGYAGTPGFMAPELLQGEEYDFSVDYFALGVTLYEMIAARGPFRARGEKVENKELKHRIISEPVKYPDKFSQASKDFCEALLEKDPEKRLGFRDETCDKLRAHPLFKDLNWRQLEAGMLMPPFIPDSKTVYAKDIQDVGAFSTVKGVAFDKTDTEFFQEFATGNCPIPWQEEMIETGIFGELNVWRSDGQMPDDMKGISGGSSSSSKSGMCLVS

[6] = biological target: Tyrosine-protein kinase receptor UFO (Homo sapiens) (UniProt P30530); assay: Selectivity interaction (KinomeScan (DiscoverX)) EUB0001619a AXL; conditions: at 1 µM
Chain of Tyrosine-protein kinase receptor UFO (Homo sapiens) (P30530 whole entry): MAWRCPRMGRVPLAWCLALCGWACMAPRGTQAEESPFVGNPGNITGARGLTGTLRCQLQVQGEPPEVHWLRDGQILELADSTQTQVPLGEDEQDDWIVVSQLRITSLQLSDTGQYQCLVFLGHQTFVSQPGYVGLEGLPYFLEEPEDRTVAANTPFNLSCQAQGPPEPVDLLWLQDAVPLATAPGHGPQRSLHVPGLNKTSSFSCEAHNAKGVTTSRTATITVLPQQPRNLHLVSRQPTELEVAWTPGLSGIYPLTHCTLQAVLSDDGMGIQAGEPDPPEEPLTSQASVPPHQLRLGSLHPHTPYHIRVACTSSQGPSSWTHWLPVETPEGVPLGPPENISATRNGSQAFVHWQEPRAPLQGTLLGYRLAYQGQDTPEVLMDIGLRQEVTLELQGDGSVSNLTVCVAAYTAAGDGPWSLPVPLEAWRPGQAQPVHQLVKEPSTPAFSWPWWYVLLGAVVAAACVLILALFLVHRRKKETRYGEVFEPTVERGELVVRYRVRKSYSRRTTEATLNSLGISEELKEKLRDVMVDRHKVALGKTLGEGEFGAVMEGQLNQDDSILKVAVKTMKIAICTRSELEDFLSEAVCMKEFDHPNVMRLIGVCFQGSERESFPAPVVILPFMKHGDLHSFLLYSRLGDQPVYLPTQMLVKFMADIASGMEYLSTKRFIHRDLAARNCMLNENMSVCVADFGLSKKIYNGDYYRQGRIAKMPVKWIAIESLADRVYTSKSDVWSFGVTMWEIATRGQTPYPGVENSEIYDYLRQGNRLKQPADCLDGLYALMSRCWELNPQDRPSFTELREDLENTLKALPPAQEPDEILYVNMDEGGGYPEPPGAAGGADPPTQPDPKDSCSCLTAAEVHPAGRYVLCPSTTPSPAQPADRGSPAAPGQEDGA

[7] = biological target: Ribosomal protein S6 kinase alpha-4 (Homo sapiens) (UniProt O75676); assay: Selectivity interaction (KinomeScan (DiscoverX)) EUB0001619a RPS6KA4; conditions: at 1 µM
Chain of Ribosomal protein S6 kinase alpha-4 (Homo sapiens) (O75676 whole entry, looked up): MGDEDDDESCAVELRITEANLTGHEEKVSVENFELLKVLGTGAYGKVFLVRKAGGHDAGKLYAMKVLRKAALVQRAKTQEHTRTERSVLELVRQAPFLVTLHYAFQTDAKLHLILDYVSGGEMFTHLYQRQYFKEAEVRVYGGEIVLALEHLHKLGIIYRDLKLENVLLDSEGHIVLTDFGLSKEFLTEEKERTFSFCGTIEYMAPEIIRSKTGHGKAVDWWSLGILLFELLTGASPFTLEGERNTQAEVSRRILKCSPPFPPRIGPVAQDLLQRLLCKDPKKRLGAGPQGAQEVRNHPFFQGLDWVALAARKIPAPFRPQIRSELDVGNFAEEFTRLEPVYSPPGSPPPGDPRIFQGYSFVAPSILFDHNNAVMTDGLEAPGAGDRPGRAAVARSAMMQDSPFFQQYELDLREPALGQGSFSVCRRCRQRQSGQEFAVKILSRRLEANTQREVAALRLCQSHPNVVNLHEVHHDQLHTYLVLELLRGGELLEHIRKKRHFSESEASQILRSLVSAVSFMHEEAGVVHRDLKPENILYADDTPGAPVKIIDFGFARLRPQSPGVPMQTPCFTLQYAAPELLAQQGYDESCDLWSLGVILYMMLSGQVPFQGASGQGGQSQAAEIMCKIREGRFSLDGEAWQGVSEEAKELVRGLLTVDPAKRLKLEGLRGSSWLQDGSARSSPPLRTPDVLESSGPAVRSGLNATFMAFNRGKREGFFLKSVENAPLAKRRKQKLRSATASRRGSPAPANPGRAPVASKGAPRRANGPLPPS

[8] = test system: Platelet-derived growth factor receptor alpha (Homo sapiens), P16234 [T674I]; assay: (§1) Selectivity interaction (Kinase panel (Carna Biosciences)) EUB0001542aTs PDGFRA; conditions: at 1 µM
Chain of Platelet-derived growth factor receptor alpha (Homo sapiens), P16234 [T674I] (P16234 whole entry T674I): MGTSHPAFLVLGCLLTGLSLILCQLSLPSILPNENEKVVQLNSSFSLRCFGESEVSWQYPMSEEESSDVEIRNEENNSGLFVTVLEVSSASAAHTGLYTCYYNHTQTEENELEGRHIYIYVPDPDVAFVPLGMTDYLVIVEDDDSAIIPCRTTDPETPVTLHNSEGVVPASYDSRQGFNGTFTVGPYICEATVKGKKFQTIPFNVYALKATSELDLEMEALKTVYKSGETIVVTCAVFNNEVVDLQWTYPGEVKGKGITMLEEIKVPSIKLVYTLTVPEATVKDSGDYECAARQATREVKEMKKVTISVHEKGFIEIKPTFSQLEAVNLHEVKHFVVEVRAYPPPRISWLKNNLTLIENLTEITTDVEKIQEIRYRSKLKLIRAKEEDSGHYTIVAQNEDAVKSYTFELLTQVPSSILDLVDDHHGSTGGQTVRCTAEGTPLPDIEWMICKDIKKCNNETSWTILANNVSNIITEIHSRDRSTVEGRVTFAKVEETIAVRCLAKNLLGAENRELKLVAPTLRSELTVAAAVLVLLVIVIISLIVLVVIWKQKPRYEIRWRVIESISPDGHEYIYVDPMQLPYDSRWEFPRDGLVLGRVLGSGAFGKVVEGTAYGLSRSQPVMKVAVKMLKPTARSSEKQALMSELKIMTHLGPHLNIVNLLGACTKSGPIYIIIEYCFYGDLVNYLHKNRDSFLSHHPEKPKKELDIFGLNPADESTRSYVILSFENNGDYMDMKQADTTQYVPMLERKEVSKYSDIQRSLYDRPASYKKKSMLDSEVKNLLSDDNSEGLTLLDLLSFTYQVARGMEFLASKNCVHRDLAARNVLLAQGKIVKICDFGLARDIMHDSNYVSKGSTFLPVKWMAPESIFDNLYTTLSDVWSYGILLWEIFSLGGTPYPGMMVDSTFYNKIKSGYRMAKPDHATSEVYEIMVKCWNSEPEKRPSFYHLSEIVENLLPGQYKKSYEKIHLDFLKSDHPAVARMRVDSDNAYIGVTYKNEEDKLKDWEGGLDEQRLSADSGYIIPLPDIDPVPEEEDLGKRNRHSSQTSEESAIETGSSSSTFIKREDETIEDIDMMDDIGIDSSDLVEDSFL

[9] = biological target: Platelet-derived growth factor receptor alpha (Homo sapiens, UniProt P16234); assay: as §1; conditions: at 1 µM
Chain of Platelet-derived growth factor receptor alpha (P16234 whole entry): as the sequence (P16234 whole entry T674I) above, with I674T counted along it

[10] = test system: Platelet-derived growth factor receptor alpha (Homo sapiens), P16234 [V561D]; assay: as §1; conditions: at 1 µM
Chain of Platelet-derived growth factor receptor alpha (Homo sapiens), P16234 [V561D] (P16234 whole entry V561D): as the sequence (P16234 whole entry T674I) above, with V561D, I674T counted along it

[11] = biological target: Tyrosine-protein kinase receptor UFO (Homo sapiens) (UniProt P30530); assay: Selectivity interaction (ProQinase) EUB0000171b AXL

Question: Which % binding [1] does the source give for `COc1cc(N(C)c2ccnc3ccc(C(F)(F)F)cc23)cc(OC)c1OC` here?
Answer: The % binding was 80%.

Question: And the % binding [2]?
Answer: The % binding was 63%.

Question: Which % of control [3] does the source give for `CCC(=O)N1CCN(c2ccc(-n3c(=O)ccc4cnc5ccc(-c6cnc7ccccc7c6)cc5c43)cc2C(F)(F)F)CC1` here?
Answer: Its % of control is 92%.

Question: And the % of control [4]?
Answer: Its % of control is 94%.

Question: `Cc1cc([C@@H](C)Nc2ccccc2C(=O)O)c2nc(N3CCOCC3)cc(=O)n2c1` [AZD-6482] was tested. Which % of control [5] did it give?
Answer: The % of control was 100%.

Question: With `N#Cc1cccc(-c2c[nH]c3ncnc(N4CCOCC4)c23)c1` as the compound, how does the % of control [6] read?
Answer: Its % of control is 99%.

Question: And the % of control [7]?
Answer: Its % of control is 100%.

Question: With `Cn1cc(Nc2nccc(N3CC4CCC(C3)N4C(=O)[C@@H]3CC3(F)F)n2)cn1` as the compound, how does the % of inhibition [8] read?
Answer: Its % of inhibition is 78%.

Question: And the % of inhibition [9]?
Answer: The % of inhibition was 70%.

Question: What about the % of inhibition [10] of the same compound?
Answer: Its % of inhibition is 60%.

Question: For `C=CC(=O)Nc1cccc(C(=O)Nc2ccc(Nc3cc(-c4[nH]c(SC)nc4C)ccn3)cc2)c1`, which % of control ([11]; at 1 µM) is on record?
Answer: Its % of control is 99%.

Question: What about the % of control ([11]; at 5 µM) of the same compound?
Answer: Its % of control is 76%.

Reference: ChEMBL document CHEMBL5465560, “Selectivity Literature for EUbOPEN Chemogenomic Library” (2024)
